Results from patent publication US20220145264A1, “CULTURE MEDIUM FOR MAMMALIAN EXPANDED POTENTIAL STEM CELLS, COMPOSITION, AND METHODS THEREOF” (THE UNIVERSITY OF HONG KONG, priority 2019, published 2022).
“Also recorded” adds a separate entry of the source.

Columns and labels:
H1-EPSCs = assay: Requirement of individual culture components for hEPSCs (RT-qPCR, AP+ colony formation); assay type: cell-based, human
Experimental: (§1) Porcine and human EPSC cultures were routinely maintained on STO feeders. STO feeder plates were prepared 3-4 days before passaging by thawing and plating the mitomycin C inactivated STO cells on 0.1% gelatinised plates at the density of ˜1.1×10^4 cells/cm^2. Porcine/human EPSC cells were maintained on STO feeder layers and enzymatically passaged every 3-5 days by a brief PBS wash followed by treatment for 3-5 minutes with 0.25% trypsin/EDTA (Gibco, Cat. No. 25500-054). The cells were dissociated and centrifuged (300 g×5 minutes) in M10 medium. M10: knockout DMEM (Gibco, Cat. No. 10829-018), 10% FBS (Gibco, Cat. No. 10270), 1× Glutamine Penicillin-Streptomycin (Thermo Fisher Scientific, Cat. No. 11140050) and 1×NEAA (Thermo Fisher Scientific, Cat. No. 10378-016). After removing supernatant, the porcine/human EPSCs were re-suspended and seeded in pEPSCM/hEPSCM supplemented with 5 μM ROCK inhibitor Y-27632 (Tocris, Cat. No. 1254). 5% FBS (Gibco, Cat. No. 10270) and 10% KnockOut Serum Replacement (KSR) (Gibco, Cat. No. 10828028) were added in pEPSCM and hEPSCM respectively to improve cells survive. 12-24 hours later, medium was switched to pEPSCM/hEPSCM only. Both pEPSCM and hEPSCM are N2B27 based media. N2B27 basal media (500 ml) was prepared by inclusion of the following components: 482.5 ml DMEM/F-12 (Gibco, Cat. No. 21331-020), 2.5 ml N2 supplement (Thermo Fisher Scientific, Cat. No. 17502048), 5 ml B27 supplement (Thermo Fisher Scientific, Cat. No. 17504044), 5 ml 1× Glutamine Penicillin-Streptomycin (Thermo Fisher Scientific, Cat. No. 11140-050), and 5 ml 1×NEAA (Thermo Fisher Scientific, Cat. No. 10378-016), 0.1 mM 2-mercaptoethanol (Sigma, Cat. No. M6250). pEPSCM (500 ml) was generated by adding the following small molecules and cytokines into 500 ml N2B27 basal media: 0.2 μM CHIR99021(GSK3i, TOCRIS, Cat. No. 4423), 1 μM WH-4-023 (SRC inhibitor, TOCRIS, Cat. No. 5413), 2.5 μM XAV939 (Sigma, Cat. No. X3004) or 2.5 μM IWR-1 (TOCRIS, Cat. No. 3532), […] Vitamin C (Sigma, Cat. No. 49752-100G), 10 ng/ml LIF (Stem Cell Institute, University of Cambridge. SCI) and 20 ng/ml ACTIVIN (SCI). hEPSCM (500 ml) was generated by adding the following components into 500 ml N2B27 basal media: 1.0 μM CHIR99021(GSK3 inhibitor, TOCRIS, Cat. No. 4423), 0.5 μM A-419259 (SRC inhibitor, TOCRIS, Cat. No. 3914), 2.5 μM XAV939 (Sigma, Cat. No. X3004), […] Vitamin C (Sigma, Cat. No. 49752-100G), 10 ng/ml LIF (SCI). Although both targeting SRC family kinases (SFKs), WH-4-023 and A419259 were preferred for porcine and human EPSCs, respectively. […] The concentrations of CHIR99021 for porcine and human EPSC cultures are 0.2 μM and 1.0 μM, respectively. […] 0.25 μM SB 590885 (BRAF inhibitor, R&D, Cat. No. 2650) and 2.0 μM SP600125 ([…], TOCRIS, Cat. No. 1496) were included to improve porcine and human EPSC cultures, but they were not essential for the routine maintenance of porcine and human EPSCs. All cell cultures in this paper were performed under conditions of 37° C. and 5% CO2 unless stated otherwise.
(§2) Total RNA was isolated using an RNeasy Mini Kit (Qiagen, Cat. No. 74106) for cultured cells or RNeasy Micro Kit (Qiagen, Cat. No. 74034) for sorted NANOS3-mCherry^+ cells. RNA was subsequently quantified and treated with gDNA WipeOut to remove genomic DNA. Complementary DNA (cDNA) was prepared using a QuantiTect Reverse Transcription Kit (Qiagen, Cat. No. 205311). RT-qPCR primers or TaqMan Gene Expression Assays (Life Technologies) are listed in Supplementary Table 10 and 11. ABsolute Blue qPCR ROX Mix (ABgene, Cat. No. AB4138B) were used for probe based qPCR assays and SYBR Green ROX qPCR Mastermix (Qiagen, Cat. No. 330523) were used for primer based qPCR assays. All qPCR reactions were performed on ABI 7900 HT Sequence Detection System (Life Technologies). Information on all primers and probes used for qPCR analysis are provided in Supplementary Table 10 and 11. Gene expression was determined relative to GAPDH using the […]. […]

pEPSCs^Emb = assay: Requirement of individual culture components for pEPSCs (RT-qPCR, AP+ colony formation); assay type: cell-based, porcine; conditions: for number of colonies from single cells / pluripotency gene expression: removing the component from pEPSCM
Experimental: as §1, §2

[1] = system: NANOS3-H2BmCherry reporter pEPSCs^Emb; assay: Induction of pPGCLCs from NANOS3-H2BmCherry reporter pEPSCs (EBs, FACS); assay type: cell-based, porcine; conditions: inhibition of BMP2/4 signaling in EB culture
Experimental: To analyse the contribution of donor mCherry^+ porcine EPSCs in day 25-27 chimeras, the half fetuses were dissected into small pieces representing several body parts (head, trunk and tail). The dissected tissues and placenta were digested with 1.0 mg/ml collagenase IV (Thermo Fisher Scientific, Cat. No. 17104019) for 1-3 hours at 37° C. on a shaker. A pipette was used to blow the tissue blocks and dissociate them into single cells. The dissociated cells were filtered with a 35 μm nylon mesh (Corning, Cat. No. 352235) to remove tissues clumps. After centrifugation, the cells were fixed using Fixation Medium according to the manufacturers' manual (BD Cytofix, Cat. No. 554655) and the washed cells were stored at 4° C. in PBS supplemented with 0.1% NaN3 (Sigma, Cat. No. 199931) and 5% FBS (Gibco, Cat. No. 10270) before analysed with flow cytometry. All the samples were analysed using BD LSR Fortessa cytometer. 561 nm (610/20 bandpass filter) and 488 nm (525/50 bandpass filter) channels were used to detect mCherry and excluded autofluorescence. PGC EBs were trypsinized with 0.25% trypsin/EDTA Gibco, Cat. No. 25500-054) at 37° C. for 15 mins and stained with PerCP-Cy5.5 conjugated anti-TNAP antibody. 561 nm (610/20 bandpass filter) and 488 nm (710/50 bandpass filter) channels were used to detect NANOS3-H2BmCherry^+/TNAP^+ cells. FACS data were analysed by Flowjo software. […]

human EPSCs = assay: Differentiation of human EPSCs to trophoblast lineages (CDX2-H2B-Venus reporter flow cytometry, RT-qPCR); assay type: cell-based
Experimental: hEPSCs were dissociated with 0.25% trypsin/EDTA and seeded in gelatinised 6-well plates at a density of 0.1×10^6 cells/well. The cells were cultured in 20% KSR media supplemented with 5 μM ROCK inhibitor Y-27632 for 1 day. 20% KSR media: DMEM/F-12 (Gibco, Cat. No. 21331-020), 20% KnockOut Serum Replacement (KSR) (Gibco, Cat. No. 10828-028), 1× glutamine penicillin-streptomycin (Thermo Fisher Scientific, Cat. No. 11140-050), 1×NEAA (Thermo Fisher Scientific, Cat. No. 10378-016) and 0.1 mM 2-mercaptoethanol (Sigma, Cat. No. M6250). From the second day, different combinations of the TGFβ inhibitor SB431542 (10 μM, Tocris, Cat. No. 1514), BMP4 (50 ng/ml, R&D, Cat. No. 5020-BP) and the FGF receptor inhibitor PD173074 (0.1 μM, Tocris, Cat. No. 3044) were added into 20% KSR media to start the trophoblast differentiation. The cells were collected at indicated time points for analysis.

CN1CCN(C2CCC(n3cc(-c4ccc(Oc5ccccc5)cc4)c4c(N)ncnc43)CC2)CC1 (stereo not shown) [A419259]
expression of pluripotency factors (H1-EPSCs; removal of the SRC inhibitor, human EPSCs): reduced expression of pluripotency factors

Cc1c[nH]c(-c2cnc(NCCNc3ccc(C#N)cn3)nc2-c2ccc(Cl)cc2Cl)n1 [CHIR99021]
differentiation of EPSCs (pEPSCs^Emb; high concentration 3.0 μM, porcine EPSCs): induced differentiation; also recorded: induces porcine and human EPSC differentiation
proliferation (pEPSCs^Emb; porcine EPSCs): improved proliferation
number of colonies from single cells (pEPSCs^Emb): reduced
pluripotency gene expression (pEPSCs^Emb): did not affect
differentiation of EPSCs (H1-EPSCs; high concentration 3.0 μM, human EPSCs): induced differentiation; also recorded: induces porcine and human EPSC differentiation
proliferation (H1-EPSCs; human EPSCs): improved proliferation

c1ccc2c(-c3cnn4cc(-c5ccc(N6CCNCC6)cc5)cnc34)ccnc2c1 [LDN-193189]
formation of mCherry+/TNAP+ cell clusters [1]: abrogated

NC(=O)c1ccc(-c2nc(-c3ccc4c(c3)OCO4)c(-c3ccccn3)[nH]2)cc1 [SB431542]
CDX2 reporter cells being CDX2-Venus+ (human EPSCs; TGFβ inhibition, cells collected 4 days after): 70%
cell survival and pluripotency factor expression (pEPSCs^Emb; adding the TGFβ inhibitor to pEPSCM): massive cell loss and down-regulation of pluripotency factors
cell differentiation (H1-EPSCs; adding the TGFβ inhibitor, human EPSCs): induced rapid cell differentiation

O=C1O[C@H]([C@@H](O)CO)C(O)=C1O [Vitamin C]
number of colonies from single cells (pEPSCs^Emb): reduced
pluripotency gene expression (pEPSCs^Emb): did not affect

COc1ccc(N(C(=O)Oc2c(C)cccc2C)c2ccnc(Nc3ccc(N4CCN(C)CC4)cc3)n2)c(OC)c1 [WH-4-023]
expression of pluripotency factors (pEPSCs^Emb; removal of the SRC inhibitor, porcine EPSCs): reduced expression of pluripotency factors
pluripotency gene expression (H1-EPSCs; WH-4-023 used instead of A419259 in human EPSCs): lower pluripotency gene expression

B1: BMP4: cytokine (R&D, Cat. No. 5020-BP) promoting differentiation of human ESCs to putative trophoblasts (protein, UniProt P21275 293-408, looked up)
Bone morphogenetic protein 4: SPKHHPQRSRKKNKNCRRHSLYVDFSDVGWNDWIVAPPGYQAFYCHGDCPFPLADHLNSTNHAIVQTLVNSVNSSIPKACCVPTELSAISMLYLDEYDKVVLKNYQEMVVEGCGCR
expression of trophoblast genes (human EPSCs; 4-day BMP4 treatment, H1-EPSCs and iPSC-EPSCs versus H1-ESCs or H1-5i naïve ESCs): induced expression of trophoblast genes
